Experimental data reported in US8674096B2, “Substituted imidazo[1,5-a]quinoxalin-4-ones as phosphodiesterase 9 inhibitors” (priority 2009, dated 2014).

Experiments:
PDE9 = target: T1, PDE9 (Homo sapiens, UniProt O76083); assay: PDE9-inhibiting activity (SPA, 3H-cGMP degradation); type: biochemical
T1 construct: made in house
Method: The PDE9 used in the present experiment was expressed/purified by the method as in, for example, Guipponi et al., and Fisher et., al. (Fisher, D. A., et al., J. Biol. Chem., 273: pp. 15559-15564 (1998), Guipponi, M., et al., Hum. Genet., 103: pp. 386-392 (1998)).
The PDE9-inhibiting activity was measured by the following method. That is, to a buffer solution containing tris(hydroxymethyl)aminomethane-hydrochloric acid (40 mM, pH 8.0), magnesium chloride (5 mM), and 2-mercaptoethanol (4 mM) were added cGMP (1 μM) and ^3H-cGMP (0.33 μCi/ml) to give a substrate buffer solution. A test substance solution and an enzyme solution which had been adjusted to an optimal concentration were added thereto to perform a reaction at 30° C. The enzyme reaction was stopped by the addition of Scintillation Proximity Assay (SPA) Beads (GE Healthcare, UK) containing 5 mM 3-isobutyl-1-methylxanthine (IBMX). For the enzyme activity, the amount of 5′-GMP, which is a reaction degradation product bound to SPA beads, was measured with a TopCount microplate reader (Hewlett Packard, USA).
The inhibitory rate was calculated by taking the radioactivity of the control containing no test substance as (A), taking the radioactivity of the blank containing no enzyme as (B), and taking the radioactivity of the test substance as (C), and using the following equation. Inhibitory rate=100−{(C)−(B)/(A)−(B)}×100(%)

T1 sequence (O76083 whole entry): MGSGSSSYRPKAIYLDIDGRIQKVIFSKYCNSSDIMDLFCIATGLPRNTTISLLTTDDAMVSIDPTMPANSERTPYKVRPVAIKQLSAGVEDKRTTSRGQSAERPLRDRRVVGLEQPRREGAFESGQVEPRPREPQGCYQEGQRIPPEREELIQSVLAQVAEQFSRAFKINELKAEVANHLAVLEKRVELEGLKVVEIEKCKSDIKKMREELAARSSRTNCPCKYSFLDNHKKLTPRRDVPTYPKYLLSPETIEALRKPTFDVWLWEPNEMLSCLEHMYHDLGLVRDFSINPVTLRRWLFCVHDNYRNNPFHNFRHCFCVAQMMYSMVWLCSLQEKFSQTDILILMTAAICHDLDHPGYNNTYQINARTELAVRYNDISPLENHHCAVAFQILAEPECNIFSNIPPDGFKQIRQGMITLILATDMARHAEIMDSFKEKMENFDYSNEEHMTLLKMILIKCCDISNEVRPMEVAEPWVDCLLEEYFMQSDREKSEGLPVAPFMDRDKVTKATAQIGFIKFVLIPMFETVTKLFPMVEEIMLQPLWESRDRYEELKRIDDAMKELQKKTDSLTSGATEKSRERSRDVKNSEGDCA

Row | IC50 (PDE9) | melting point | Compound
1 | 4.2 nM | 222 to 223 °C | Cc1cc2c(cc1C(=O)N1CCc3cc(Br)cnc31)[nH]c(=O)c1nnc(C3CCOCC3)n12 [Example 306]
2 | 0.9 nM | 227 to 230 °C | Cc1cc2c(cc1C(=O)N1CC(C)(C)c3cc(Cl)ccc31)[nH]c(=O)c1nnc(C3CCOCC3)n12.Cl [Example 517]
3 | 20 nM | 236 to 237 °C | Cc1cc2c(cc1C(=O)N1CCc3c(Cl)cccc3C1)[nH]c(=O)c1nnc(C3CCCC3)n12 [Example 91]
4 | 5.4 nM | 260 to 262 °C (dec.) | Cc1cc2c(cc1C(=O)N1CCc3cc(Cl)ccc31)[nH]c(=O)c1nnc(C(O)C3CC3)n12 (stereo not shown) [Example 359]
5 | 3.6 nM | 257 °C (dec.) | COCc1cc2c(cc1C(=O)N1CCc3cc(Cl)ccc31)[nH]c(=O)c1nnc(CC3CC3)n12.Cl [Example 522]
6 | 0.9 nM | 339 to 342 °C (dec.) | Cl.O=C(c1cc2[nH]c(=O)c3cnc(C4CCOCC4)n3c2cc1C1CC1)N1CCc2cc(Cl)ccc21 [Example 263]
7 | 5.8 nM | 276 to 278 °C | Cc1cc2c(cc1C(=O)N1CCc3cc(F)c(Cl)cc31)[nH]c(=O)c1nnc(C3CCCC3)n12.Cl [Example 248]
8 | 3.1 nM | 309 to 311 °C | Cc1cc2c(cc1C(=O)N1CCc3cc(Cl)ccc31)[nH]c(=O)c1nnc(C(F)C3CC3)n12.Cl (stereo not shown) [Example 11, 7-[(5-chloro-2,3-dihydro-1H-indol-1-yl)carbonyl]-1-[cyclopropyl(fluoro)methyl]-8-methyl[1,2,4]triazolo[4,3-a]quinoxalin-4(5H)-one]
9 | 0.9 nM | 234 to 237 °C | Cc1cc2c(cc1C(=O)N1CCc3cc(Cl)ccc31)[nH]c(=O)c1cnc([C@H]3CC[C@H](C(N)=O)CC3)n12 [Example 528]
10 | 1.6 nM | 298 to 301 °C | Cc1cc2c(cc1C(=O)N1CCc3cc(Cl)ccc31)[nH]c(=O)c1nnc(C3CCCOC3)n12.Cl (stereo not shown) [Example 281]
11 | 2.8 nM | 309 to 311 °C | Cc1cc2c(cc1C(=O)N1CCc3cc(Cl)c(F)cc31)[nH]c(=O)c1nnc(C3CCOCC3)n12 [Example 291]
12 | 0.8 nM | 298 to 301 °C (dec.) | COCc1cc2c(cc1C(=O)N1CCc3cc(Cl)ccc31)[nH]c(=O)c1cnc(C3CCOCC3)n12.Cl [Example 300]
13 | 1.7 nM | – | Cc1cc2c(cc1C(=O)N1CCc3cc(Cl)c(F)cc31)[nH]c(=O)c1nnc(C3CCCC3)n12 [Example 324]
14 | 1 nM | 265 to 266 °C | Cc1cc2c(cc1C(=O)N1CCc3cc(Cl)ccc31)[nH]c(=O)c1cnc(C3CCOCC3)n12.Cl [Example 77]
15 | 3.9 nM | 210 to 212 °C (dec.) | Cc1cc2c(cc1C(=O)N1CCc3cc(F)c(F)cc31)[nH]c(=O)c1nnc(C3CCCC3)n12.Cl [Example 289]
16 | 12 nM | – | Cc1cc2c(cc1C(=O)N1CCc3cc(F)cnc31)[nH]c(=O)c1nnc(C3CCOCC3)n12 [Example 352]
17 | 29 nM | 243 to 245 °C | Cc1cc2c(cc1C(=O)N1CCc3cc(F)ccc31)[nH]c(=O)c1nnc(C3(C)CCOCC3)n12.Cl [Example 322]
18 | 3.3 nM | 198 to 201 °C | COCc1cc2c(cc1C(=O)N1CCc3cc(Cl)ccc31)[nH]c(=O)c1nnc(C3CCOCC3)n12 [Example 347]
19 | 1.2 nM | 204 to 206 °C | Cc1cc2c(cc1C(=O)N1CCc3cc(Cl)ccc31)[nH]c(=O)c1cnc([C@H]3CC[C@@H](O)CC3)n12.Cl [Example 330]
20 | 1.5 nM | 277 to 279 °C | Cc1cc2c(cc1C(=O)N1CCc3cc(Cl)ccc31)[nH]c(=O)c1nnc([C@H]3CC[C@@H](O)CC3)n12 [Example 356]

More lines, now with the values behind:

Row | Compound | IC50 (PDE9) | melting point
21 | Cc1cc2c(cc1C(=O)N1CCc3cc(Br)cnc31)[nH]c(=O)c1nnc(C3CCOC3)n12.Cl (stereo not shown) [Example 312] | 20 nM | 242 to 243 °C
22 | COCc1cc2c(cc1C(=O)N1CCc3cc(OC)ncc31)[nH]c(=O)c1cnc(C3CCOCC3)n12 [Example 333] | 2.9 nM | 208 °C (dec.)
23 | Cc1cc2c(cc1C(=O)N1CCc3cc(S(=O)(=O)N(C)C)ccc31)[nH]c(=O)c1cnc(C3CCOCC3)n12.Cl [Example 80] | 2.6 nM | 209 to 212 °C
24 | Cc1cc2c(cc1C(=O)N1CCc3ccccc3C1c1ccncc1)[nH]c(=O)c1nnc(-c3ccc(O)c(Cl)c3)n12 (stereo not shown) [Example 5, 1-(3-chloro-4-hydroxyphenyl)-8-methyl-7-[(1-pyridin-4-yl-3,4-dihydroisoquinolin-2(1H)-yl)carbonyl][1,2,4]triazolo[4,3-a]quinoxalin-4(5H)-one] | 2.3 nM | –
25 | Cc1cc2c(cc1C(=O)N1CCc3cc(Cl)c(F)cc31)[nH]c(=O)c1cnc(C3CCOCC3)n12.Cl [Example 290] | 1 nM | 292 to 294 °C
26 | Cc1cc2c(cc1C(=O)N1CCc3cc(F)ccc31)[nH]c(=O)c1cnc(C3CCOCC3)n12.Cl [Example 76] | 2.5 nM | 297 to 298 °C
27 | Cc1cc2c(cc1C(=O)N1CCc3cc(F)ccc31)[nH]c(=O)c1cnc(C3CCCOC3)n12 (stereo not shown) [Example 318] | 5.9 nM | –
28 | O=C(c1ccc2c(c1)[nH]c(=O)c1nnc(-c3ccc(O)cc3)n12)N1CCc2c(Cl)cccc2C1 [Example 4, 7-[(5-chloro-3,4-dihydroisoquinolin-2(1H)-yl)carbonyl]-1-(4-hydroxyphenyl)[1,2,4]triazolo[4,3-a]quinoxalin-4(5H)-one] | 19 nM | 373 °C (dec.)
29 | COc1cc2c(cc1C(=O)N1Cc3ccccc3C[C@@H]1CO)[nH]c(=O)c1cnc(C3CCCCC3)n12 [Example 220] | 18 nM | 215 °C (dec.)
30 | Cc1cc2c(cc1C(=O)N1Cc3ccccc3C1)[nH]c(=O)c1nnc(C3CCOCC3)n12 [Example 93] | 15 nM | 305 °C (dec.)
31 | Cc1cc2c(cc1C(=O)N1Cc3ccccc3C1)[nH]c(=O)c1cnc(C3CCOCC3)n12 [Example 27] | 18 nM | 312 °C (dec.)
32 | COc1cc2c(cc1C(=O)N1Cc3ccccc3C1)[nH]c(=O)c1nnc(C3CCOCC3)n12.Cl [Example 338] | 28 nM | 228 °C (dec.)
33 | Cc1cc2c(cc1C(=O)N1CCc3cc(F)cnc31)[nH]c(=O)c1cnc(C3CCOCC3)n12.Cl [Example 344] | 7.7 nM | 340 °C (dec.)
34 | Cc1cc2c(cc1C(=O)N1CC(C)(C)c3cc(Cl)ccc31)[nH]c(=O)c1cnc(C3CCOCC3)n12 [Example 516] | 0.8 nM | –
35 | O=C(c1cc2[nH]c(=O)c3cnc(C4CCOCC4)n3c2cc1Cl)N1CCc2cccnc21 [Example 279] | 10 nM | 275 °C (dec.)
36 | COCc1cc2c(cc1C(=O)N1CCc3ncccc3C1)[nH]c(=O)c1cnc(C3CCOCC3)n12 [Example 350] | 9.2 nM | 172 to 175 °C
37 | COC(=O)c1cccc2c1CN(C(=O)c1cc3[nH]c(=O)c4cnc(C5CCOCC5)n4c3cc1C)CC2.Cl [Example 68] | 3.5 nM | 192 to 194 °C
38 | COCc1cc2c(cc1C(=O)N1CCc3cc(Br)cnc31)[nH]c(=O)c1cnc(C3CCOCC3)n12.Cl [Example 320] | 1 nM | 310 °C (dec.)
39 | COCc1cc2c(cc1C(=O)N1CCc3cc(F)c(F)cc31)[nH]c(=O)c1nnc(C3CCOCC3)n12.Cl [Example 519] | 6.8 nM | 266 to 269 °C
40 | CN(C)CCOc1cc2c(cc1C(=O)N1CCc3cc(F)ccc31)[nH]c(=O)c1cnc(C3CCOCC3)n12 [Example 309] | 4.1 nM | 216 to 219 °C (dec.)
41 | CCCc1nnc2c(=O)[nH]c3cc(C(=O)N(C)Cc4cccc(Cl)c4)ccc3n12 [Example 134] | 950 nM | –
42 | Cc1cc2c(cc1C(=O)N1CCc3ccccc31)[nH]c(=O)c1cnc(C3CCCC3)n12 [Example 3, 1-cyclopentyl-7-(2,3-dihydro-1H-indol-1-ylcarbonyl)-8-methylimidazo[1,5-a]quinoxalin-4(5H)-one] | 6.7 nM | 291 °C (dec.)
43 | Cc1cc2c(cc1C(=O)N1CCc3cc(Br)cnc31)[nH]c(=O)c1nnc(C3CC(F)(F)C3)n12 [Example 346] | 27 nM | –
44 | Cc1cc2c(cc1C(=O)N1CCc3sccc3C1)[nH]c(=O)c1cnc(C3CCOCC3)n12.Cl [Example 35] | 12 nM | 283 to 285 °C
45 | Cc1cc2c(cc1C(=O)N1CCc3nc4ncccc4cc3C1)[nH]c(=O)c1cnc(C3CCOCC3)n12 [Example 71] | 9.2 nM | –
46 | Cc1cc2c(cc1C(=O)N1Cc3ccc(Cl)cc3C1)[nH]c(=O)c1cnc(C3CCOCC3)n12.Cl [Example 103] | 11 nM | 210 to 214 °C
47 | Cl.O=C(c1cc2[nH]c(=O)c3cnc(C4CCOCC4)n3c2cc1OCCO)N1CCc2cc(Cl)ccc21 [Example 326] | 1.2 nM | 303 to 306 °C (dec.)
48 | COc1cc2c(cn1)N(C(=O)c1cc3[nH]c(=O)c4cnc(C5CCOCC5)n4c3cc1OC)CC2 [Example 277] | 16 nM | 237 °C (dec.)
